In brackets after ≈: the same amount, converted by molar mass. One block for each compound: values may come before it.
Experiments:
Bacillus subtilis = assay: Bacterial Cytological Profiling (BCP); type: cell-based; conditions: two hours, LB-MSM osmotically buffered media, 37 °C
Description: B. subtilis cells were grown in Luria Bertani (LB) medium at 37 °C until the optical density at 600 nm (OD600) was ~0.20. Cells were then left untreated or treated with compound 1 or control antibiotics in the presence of methylsulfonylmethane (MSM), as described previously. After two hours, cells were stained with FM 4−64 (1 μg/mL) to visualize cell membranes; DAPI (1 μg/ml) to visualize DNA, and SYTOX Green (1 μg/mL), a vital stain which is normally excluded from cells with an intact membrane but brightly stains cells that are lysed. Images were collected using a Delta Vision Spectris Deconvolution microscope, as described previously.

MRSA USA400 (NRS123) [1] = assay: multi-step resistance selection; type: cell-based, Staphylococcus aureus; conditions: for increase in MIC after fourteen passages: fourteen passages over two weeks; for MIC: Staphylococcus aureus, read-out: initial MIC
Description: To assess MRSA’s ability to develop resistance to the diphenylurea compounds after repeated exposure, a multi-step resistance selection experiment was conducted. […] Resistance was classified as a greater than four-fold increase in the initial MIC, as reported elsewhere.

MRSA USA400 (NRS123) [2] = assay: MIC in presence and absence of human serum albumin; type: cell-based, Staphylococcus aureus; conditions: for MIC: Staphylococcus aureus, TSB
Description: The broth microdilution assay presented above was used to assess if compounds 1 and 2 bind to a major component of blood (human serum albumin) thus limiting the free fraction of drug available to exert its antibacterial effect. […] CaCl2 ([…]) was added to wells containing daptomycin, per the CLSI guidelines.

[3] = tested on: S. aureus ATCC 6538 biofilm; assay: bacterial CFU inside mature biofilm post-treatment; type: cell-based, Staphylococcus aureus; conditions: 64 μg/mL, 24 hours
Description: (§1) Compounds 1, 2, and vancomycin were examined for their ability to eradicate mature staphylococcal biofilm using the microtiter dish biofilm formation assay. S. epidermidis NRS101 and S. aureus ATCC 6538 were selected as the test organisms given their ability to form strong adherent biofilm. An overnight culture of bacteria was diluted (1:100 in TSB + 1% glucose) and transferred to a 96-well plate. The plate was incubated for 24 hours at 37 °C in order to form adherent biofilm on the surface of the plate wells. The medium containing the bacterial suspension was removed and the biofilm was washed with sterile PBS to remove planktonic cells. Compounds 1, 2, or vancomycin (from 128 to 1 μg/mL), in triplicate, in TSB were incubated with the biofilm for 24 hours at 37 °C.
(§2) For enumeration of viable CFU inside the biofilm, compounds were removed, wells were washed with sterile PBS, and treated with 0.25% Trypsin-2.21 mM EDTA solution as described elsewhere. The solution containing cells was transferred to a 96-well plate, serially diluted in PBS, and plated on TSA. Plates were incubated at 37 °C for 19 hours before viable CFU were counted. Data are presented as average log10(CFU/mL) of bacteria present in the biofilm post-treatment.

[4] = tested on: clinically-relevant strains of MRSA and VRSA; assay: broth microdilution MIC/MBC, panel summary; type: cell-based; conditions: Staphylococcus aureus, read-out: concentration inhibiting growth of MRSA isolates (MIC)
Description: (§3) The broth microdilution assay was employed to determine the MIC of compounds 1, 2, and vancomycin against five MRSA strains, four VRSA strains, one highly mupirocin-resistant S. aureus strain, one biofilm-forming S. aureus (ATCC 6538) strain, and one biofilm-forming methicillin-resistant S. epidermidis strain, as per the guidelines of the Clinical and Laboratory Standards Institute (CLSI). […] The MBC was determined by plating an aliquot (5 μL) from wells with no growth onto TSA plates. Plates were incubated at 37 °C for 19 hours before recording the MBC (concentration where no growth was observed on TSA plates).

[5] = tested on: S. epidermidis NRS101 biofilm; assay: bacterial CFU inside mature biofilm post-treatment; type: cell-based, Staphylococcus epidermidis; conditions: 24 hours
Description: as §1, §2

VRS4 [6] = assay: microbe, parasite or virus in culture; type: cell-based, Staphylococcus aureus; conditions: Staphylococcus aureus, read-out: MIC of vancomycin
Description: (§4) CAMHB was inoculated with strain VRS4 or strain VRS10 (5×10^5 CFU/mL), as described previously, with the following modifications. Aliquots ([…]) of the bacterial suspension were divided into micro-centrifuge tubes and compounds 1 or 2 (at ½ × MIC) were introduced into each tube. After 30 minutes of incubation at room temperature, samples from each tube were transferred to a new micro-centrifuge tube, prior to addition of vancomycin (at 128 μg/mL). Plates containing the test agents and bacteria were then incubated at 37 °C for 20–22 hours after which the MIC value was determined. A fold-reduction was calculated by comparing the MIC of vancomycin compared to the MIC of vancomycin given in combination with compounds 1 or 2 (at ½ × MIC).

VRS10 [7] = assay: microbe, parasite or virus in culture; type: cell-based, Staphylococcus aureus; conditions: Staphylococcus aureus, read-out: MIC of vancomycin
Description: as §4

S. epidermidis NRS101 = assay: broth microdilution MIC; type: cell-based; conditions: Staphylococcus epidermidis, NRS101
Description: as §3

S. aureus ATCC 6538 = assay: broth microdilution MIC; type: cell-based; conditions: Staphylococcus aureus, ATCC6538
Description: as §3

[8] = tested on: S. aureus ATCC 6538 biofilm; assay: biofilm mass disruption, crystal violet reporter assay; type: cell-based, Staphylococcus aureus; conditions: all concentrations tested
Description: as §1
(§5) Compounds were subsequently removed. The biofilm was washed with PBS and then stained with 1% (w/v) crystal violet for 40 minutes. The stain was removed and wells were washed with sterile PBS. Wells were next decolorized using 95% ethanol. The optical density of each well at 595 nm was measured using a microplate reader.

[9] = tested on: S. aureus NRS107 (RN4220); assay: accumulation of UDP-N-acetylmuramyl pentapeptide (HPLC-MS); type: cell-based, Staphylococcus aureus; conditions: 10 × MIC, 30 minutes
Description: The accumulation of UDP-N-acetylmuramyl pentapeptide was detected using a procedure described in a previous study, with the following modifications. S. aureus NRS107 (RN4220), in early logarithmic growth stage (OD600 ~ 0.60), was incubated with 130 μg/mL chloramphenicol for 15 minutes at 37°C. […] Untreated samples served as a negative control. Samples were centrifuged at 10,000 rpm for five minutes, the supernatant discarded, and the pellet re-suspended in sterile deionzined water (1 mL). The pellet was boiled at […] for 30 minutes before samples were chilled on ice for 10 minutes. UDP-N-acetylmuramyl-pentapeptide was measured using an Agilent High Performance Liquid Chromatography coupled to a time-of-flight Mass Spectrometer (HPLC-MS). A Waters XBridge Phenyl (2.1 × 100 mm, 3.5 μm) chromatography column was used, with mobile phases of water, 0.1% formic acid (Buffer A) and acetonitrile, 0.1% formic acid (Buffer B). A gradient of 5–20% Buffer B over 14 minutes was used, with a flow rate of 0.3 mL/min. An electrospray source was used, in positive ionization mode. Extracted Ion Chromatograms (EIC) were generated at a mass-to-charge ratio (m/z) of 1150.3588 (20 ppm window). Mass error for UDP-N-acetylmuramyl-pentapeptide was <1 ppm.

MRSA USA300 (NRS384) = assay: time-kill assay; type: cell-based, Staphylococcus aureus; conditions: 4 × MIC
[10] = tested on: S. epidermidis NRS101 biofilm; assay: biofilm mass disruption, crystal violet reporter assay; type: cell-based, Staphylococcus epidermidis; conditions: 24-hour treatment
Description: as §1, §5

MRSA NRS387 (USA800) = assay: broth microdilution MIC/MBC; type: cell-based; conditions: Staphylococcus aureus
Description: as §3

MRSA NRS123 (USA400) = assay: broth microdilution MIC/MBC; type: cell-based; conditions: Staphylococcus aureus
Description: as §3

MRSA NRS484 (USA1100) = assay: broth microdilution MIC/MBC; type: cell-based; conditions: Staphylococcus aureus
Description: as §3

VRS11a = assay: broth microdilution MIC/MBC; type: cell-based; conditions: Staphylococcus aureus
Description: as §3

VRS7 = assay: broth microdilution MIC/MBC; type: cell-based; conditions: Staphylococcus aureus
Description: as §3

MRSA NRS384 (USA300) = assay: broth microdilution MIC/MBC; type: cell-based; conditions: Staphylococcus aureus
Description: as §3

MRSA NRS483 (USA1000) = assay: broth microdilution MIC/MBC; type: cell-based; conditions: Staphylococcus aureus
Description: as §3

VRS4 [11] = assay: broth microdilution MIC/MBC; type: cell-based; conditions: Staphylococcus aureus
Description: as §3

S. aureus NRS107 = assay: broth microdilution MIC/MBC; type: cell-based; conditions: Staphylococcus aureus, NRS107
Description: as §3

VRS10 [12] = assay: broth microdilution MIC/MBC; type: cell-based; conditions: Staphylococcus aureus
Description: as §3

[13] = 4% human serum albumin, read-out: MIC vs. MRSA USA400 (+HSA)
[14] = without human serum albumin, read-out: MIC vs. MRSA USA400 (-HSA)

Compound: N[C@@H]1CON=C1O [D-cycloserine]
- cytological profile (cell morphology) (Bacillus subtilis): bulges and misshapen cells

Compound: ramoplanin
- cytological profile (cell morphology) (Bacillus subtilis): bulges and misshapen cells

Compound: CC(=O)NC[C@H]1CN(c2ccc(N3CCOCC3)c(F)c2)C(=O)O1 [Linezolid, linezolid, reference compound]
- increase in MIC after fourteen passages (MRSA USA400 (NRS123) [1]; MRSA USA400 (NRS123)): one-fold
- MIC (MRSA USA400 (NRS123) [1]): 2 µg/mL (≈ 5.93 µM)
- increase in MIC in the presence of HSA (MRSA USA400 (NRS123) [2]; MRSA USA400, 4% human serum albumin vs none): remained unchanged
- MIC (MRSA USA400 (NRS123) [2]; [13]): 1 µg/mL (≈ 2.96 µM)
- MIC (MRSA USA400 (NRS123) [2]; [14]): 1 µg/mL (≈ 2.96 µM)

Compound: CN[C@H](CC(C)C)C(=O)N[C@H]1C(=O)N[C@@H](CC(N)=O)C(=O)N[C@H]2C(=O)N[C@H]3C(=O)N[C@H](C(=O)N[C@H](C(=O)O)c4cc(O)cc(O)c4-c4cc3ccc4O)[C@H](O)c3ccc(c(Cl)c3)Oc3cc2cc(c3O[C@@H]2O[C@H](CO)[C@@H](O)[C@H](O)[C@H]2O[C@H]2C[C@](C)(N)[C@H](O)[C@H](C)O2)Oc2ccc(cc2Cl)[C@H]1O [Vancomycin, vancomycin, reference compound]
- reduction in bacterial CFU within S. aureus biofilm [3]: 1.0 log10
- MIC [4]: 0.5 to 1 µg/mL (≈ 0.345 to 0.69 µM)
- reduction in bacterial CFU within S. epidermidis biofilm ([5]; 64 μg/mL): 1.4 log10
- reduction in bacterial CFU within S. epidermidis biofilm ([5]; 128 μg/mL): 3.14 log10
- MIC (VRS4 [6]): 512 µg/mL
- MIC (VRS10 [7]): 512 µg/mL
- MIC (S. epidermidis NRS101): 1 µg/mL (≈ 0.69 µM)
- MIC (S. aureus ATCC 6538): 0.5 µg/mL (≈ 0.345 µM)
- change in optical density of S. aureus biofilm (biofilm mass) [8]: no change
- UDP-N-acetylmuramyl pentapeptide accumulation [9]: notable increase
- time to completely eradicate a high inoculum of MRSA (~10^6 CFU/mL) (MRSA USA300 (NRS384)): 24 hours
- S. epidermidis biofilm mass, OD595 ([10]; 128 μg/mL, untreated control OD595 = 4.00): 3.80
- reduction in S. epidermidis biofilm mass ([10]; 8 to 64 μg/mL, vs untreated control): no significant reduction
- MBC (MRSA NRS387 (USA800)): 1 µg/mL (≈ 0.69 µM)
- MIC (MRSA NRS387 (USA800)): 0.5 µg/mL (≈ 0.345 µM)
- MBC (MRSA NRS123 (USA400)): 1 µg/mL (≈ 0.69 µM)
- MIC (MRSA NRS123 (USA400)): 1 µg/mL (≈ 0.69 µM)
- MBC (MRSA NRS484 (USA1100)): 2 µg/mL (≈ 1.38 µM)
- MIC (MRSA NRS484 (USA1100)): 1 µg/mL (≈ 0.69 µM)
- MBC (VRS11a): > 64 µg/mL
- MIC (VRS11a): > 64 µg/mL
- MBC (VRS7): > 64 µg/mL
- MIC (VRS7): 64 µg/mL (≈ 44.2 µM)
- MBC (MRSA NRS384 (USA300)): 0.5 µg/mL (≈ 0.345 µM)
- MIC (MRSA NRS384 (USA300)): 0.5 µg/mL (≈ 0.345 µM)
- MBC (MRSA NRS483 (USA1000)): 1 µg/mL (≈ 0.69 µM)
- MIC (MRSA NRS483 (USA1000)): 1 µg/mL (≈ 0.69 µM)
- MBC (VRS4 [11]): > 64 µg/mL
- MIC (VRS4 [11]): 64 µg/mL (≈ 44.2 µM)
- MBC (S. aureus NRS107): 2 µg/mL (≈ 1.38 µM)
- MIC (S. aureus NRS107): 1 µg/mL (≈ 0.69 µM)
- MBC (VRS10 [12]): > 64 µg/mL
- MIC (VRS10 [12]): > 64 µg/mL

- MIC (MRSA USA400 (NRS123) [2]; [13]): 64 µg/mL (≈ 39.5 µM)
- MIC (MRSA USA400 (NRS123) [2]; [14]): 2 µg/mL (≈ 1.23 µM)
Compound: CCCCCCCCCC(=O)N[C@@H](Cc1c[nH]c2ccccc12)C(=O)N[C@H](CC(N)=O)C(=O)N[C@@H](CC(=O)O)C(=O)N[C@@H]1C(=O)NCC(=O)N[C@@H](CCCN)C(=O)N[C@@H](CC(=O)O)C(=O)N[C@H](C)C(=O)N[C@@H](CC(=O)O)C(=O)NCC(=O)N[C@H](CO)C(=O)N[C@@H]([C@H](C)CC(=O)O)C(=O)N[C@@H](CC(=O)c2ccccc2N)C(=O)O[C@@H]1C [Daptomycin, daptomycin, reference compound]

Compound: Cc1onc(-c2ccccc2)c1C(=O)N[C@@H]1C(=O)N2[C@@H]1SC(C)(C)[C@@H]2C(=O)O [oxacillin]
- cytological profile (cell morphology) (Bacillus subtilis): bulges and misshapen cells

Compound: Cc1onc(-c2ccccc2Cl)c1C(=O)N[C@@H]1C(=O)N2[C@@H]1SC(C)(C)[C@@H]2C(=O)O [cloxacillin]
- cytological profile (cell morphology) (Bacillus subtilis): bulges at the poles of the cells

Compound: O=C(O)c1cn(C2CC2)c2cc(N3CCNCC3)c(F)cc2c1=O [ciprofloxacin]
- increase in MIC after fourteen passages (MRSA USA400 (NRS123) [1]; MRSA USA400 (NRS123)): seven-fold
- increase in MIC after seven passages (MRSA USA400 (NRS123) [1]; MRSA USA400 (NRS123), seven passages): three-fold
- MIC (MRSA USA400 (NRS123) [1]): 1 µg/mL (≈ 3.02 µM)

Reference: publication PMC5552351, “Bacteriological profiling of diphenylureas as a novel class of antibiotics against methicillin-resistant Staphylococcus aureus” (PLoS ONE, 2017)
